Reference: US20220296628A1, “RNA COMBINATIONS AND COMPOSITIONS WITH DECREASED IMMUNOSTIMULATORY PROPERTIES” (CureVac AG, priority 2019, published 2022)

Legend:
[1] = system: human peripheral blood mononuclear cells (PBMCs); test: PBMC stimulation: DOTAP co-transfection of immunostimulatory non-coding RNA (RNAdjuvant) with oligonucleotide, cytokines by CBA; assay type: cell-based; conditions: DOTAP co-transfection with RNAdjuvant 1 μg/ml, oligonucleotide 0.25 μg/ml (25% weight), supernatant 24 hours, compared to immunostimulatory non-coding RNA only (FIG. 1A)
Method: Human peripheral blood mononuclear cells (PBMCs) were isolated from heparinized blood of healthy volunteers by standard Ficoll-Hypaque density gradient centrifugation (Ficoll 1.078 g/ml). PBMCs were re-suspended in RPMI 1640 supplemented with 10% heat-inactivated FCS. After counting, cells are re-suspended at 50 million cells per ml in fetal calf serum, 10% DMSO, and frozen. Before usage, the cells are thawed.
For transfection experiments, 2×10^5 human PBMCs per well were seeded into each well of a 96-well plate in X-Vivo 15 medium (Lonza). For preparation of DOTAP complexes containing both immunostimulatory non-coding RNA and a 2′-O-methylated oligonucleotide (SEQ ID NO: 85), the oligonucleotide was first added to immunostimulatory non-coding RNA at a weight percentage of 25%. For preparation of DOTAP complexes containing both PpLuc mRNA and a 2′-O-methylated oligonucleotide, the oligonucleotide was first added to PpLuc mRNA at a weight percentage of 25%. The molar ratio of PpLuc mRNA to oligonucleotide was thus […] (MW (Oligonucleotide)=2907 g/mol, MW (PpLuc mRNA)=652377 g/mol). DOTAP complexes containing either immunostimulatory non-coding RNA or PpLuc mRNA without or with oligonucleotide were formed at a ratio of 3 μl of DOTAP per 1 μg of RNAdjuvant or 1 μg of mRNA. […] To quantify background stimulation, PBMC were incubated either with DOTAP alone (“vehicle”) or medium only. […]
In supernatants collected from PBMC stimulated without or with 2-O-methylated oligonucleotide, the concentrations of IFN-α, IFN-γ, TNF, were measured by Cytometric Bead Array (CBA) according to the manufacturer's instructions (BD Biosciences) using the following kits: Human Soluble Protein Master Buffer Kit (catalog no. 558264), Assay Diluent (catalog no. 560104), Human IFN-α Flex Set (catalog no. 560379), Human IFN-γ Flex Set (catalog no. 558269), Human TNF Flex Set (catalog no. 560112); all kits from BD Biosciences. The data was analyzed using the FCAP Array v3.0 software (BD Biosciences).

mice (strain 129SV) = test: Serum cytokines by CBA 6 hours post LNP injection; assay type: in vivo, mouse; conditions: 6 hours post i.v. LNP injection, in a dose-dependent manner (oligo 20% or 6.7% mass), compared to PpLuc mRNA only (FIG. 4A)
Method: In supernatants collected from PBMC stimulated without or with 2-O-methylated oligonucleotide, the concentrations of IFN-α, IFN-γ, TNF, were measured by Cytometric Bead Array (CBA) according to the manufacturer's instructions (BD Biosciences) using the following kits: Human Soluble Protein Master Buffer Kit (catalog no. 558264), Assay Diluent (catalog no. 560104), Human IFN-α Flex Set (catalog no. 560379), Human IFN-γ Flex Set (catalog no. 558269), Human TNF Flex Set (catalog no. 560112); all kits from BD Biosciences. The data was analyzed using the FCAP Array v3.0 software (BD Biosciences). For preparation of Lipid nanoparticles (LNP) containing both PpLuc mRNA and 2-O-methylated oligonucleotide, first the 2′-O-methylated oligonucleotide was added to PpLuc mRNA at a weight percentage of either 20% or 6.7% (see Table 3). LNP containing PpLuc mRNA either with or without admixture of 2-O-methylated oligonucleotide were prepared using cationic lipid, cholesterol, PEG-lipid and a neutral lipid. The mRNA was diluted to 1 g/L in citrate buffer, pH 4. The ethanolic lipid solution was mixed with the aqueous RNA solution at a ratio of 1:3 (vol/vol) using a Nanoassemblr (PrecisionNanoSystems). The ethanol was then removed and the buffer replaced by 10 mM HEPES, pH 7.4 comprising 9% Sucrose by dialysis. Finally, the LNP-formulated RNA was adjusted to 0.2 g/L. For in vivo experiments, 8 weeks old female mice (around 25 g, strain 129SV) were injected with the various LNP formulations (see tables 4 and 5). 4 animals were used per group. 10 μg or 30 μg of mRNA formulated with or without 2′-O-methylated oligonucleotide were intravenously injected at a concentration of 0.2 g/l. Bioluminescence imaging was performed 6 hours and 24 hours post LNP injection. Blood was sampled 6 hours post LNP injection and terminally 24 hours post LNP injection. Immediately thereafter, mice were sacrificed, livers collected and placed in 1.5 ml PP tubes, frozen and stored until analysis (<−70° C.). To analyse the influence of the 2′-O-methylated oligonucleotide on immunostimulation, the concentrations of IFNγ, TNFα, IL-6, MIP-1β, RANTES, and MCP1 were measured in sera from blood collected 6 hours post LNP injection by Cytometric Bead Array (CBA), performed as described in paragraph 2.3. […] To further assess the influence of the 2′-O-methylated oligonucleotide on immunostimulation, the concentration of IFNα was measured in sera from blood collected 24 hours post LNP injection by ELISA.

Substance: 5′-GAG CGmG CCA-3′ (GAGCNGCCA; 2'-O-methyl guanosine at position 5; 9mer oligonucleotide; modified_base (5)..(5) n can be any nucleotide, wherein the nucleotide is 2-O-methylated, preferably a 2-O-methylated guanosine) [Gm18, 9-mer 2′-O-methylated RNA oligonucleotide; position 5 is 2′-O-methylated guanosine (Gm); antagonist of TLR7 and 8]
- secretion of cytokine INF-a [1]: reduced secretion
- secretion of cytokine INF-y [1]: reduced secretion
- secretion of cytokine TNF [1]: reduced secretion
- release of IFNγ in sera (mice (strain 129SV)): strongly decreases the release
- release of IL-6 in sera (mice (strain 129SV)): strongly decreases the release
- release of MCP1 in sera (mice (strain 129SV)): strongly decreases the release
- release of MIP-1β in sera (mice (strain 129SV)): strongly decreases the release
- release of RANTES in sera (mice (strain 129SV)): strongly decreases the release
- release of TNFα in sera (mice (strain 129SV)): strongly decreases the release
